Laboratory results from patent US7314858B2, “Retrocyclins: antiviral and antimicrobial peptides” (priority 2001, dated 2008).
pIC50: −log10 of the molar value. ≈ marks a conversion by molar mass, not a printed value. Like-named read-outs stand apart in the source and are kept apart here. Where a SMILES comes first, the peptide text is derived from it. Bridges are numbered along the chain shown (N, C = ends).

Columns and labels:
[1] = test system: HIV-1 strain JR-CSF; test: HIV proviral DNA formation, quantitative real time PCR in CD4+-selected PBMC; type: cell-based; conditions: 20 μg/ml, MOI 0.1
Excerpt: FIG. 13. Retrocyclin and RC-101 inhibited the formation of HIV proviral DNA. Retrocyclin and RC-101 inhibited the formation of DNA from both early events (total HIV DNA) and later events (full-length HIV DNA) of reverse transcription. Data are an average of 2 experiments, except for RC-101 (1 experiment). “HI virus” is a heat-inactivated virus control for background levels of viral DNA.
Retrocyclin inhibits HIV replication at an early step (reverse transcription or before). To determine whether retrocyclin blocked the formation of proviral DNA in HIV-JR-CSF-inoculated CD4^+-selected PBMC, quantitative real time PCR was performed. This method is more sensitive than measuring p24 release and can detect infection even when p24 values may be affected by virus carried over from the original inoculum. CD4^+-selected PBMC (10^6 cells) were incubated in 250 μl at 37° C./5% CO2 for 3 hr with either HIV-1 strain JR-CSF (MOI=0.1), heat-inactivated virus (background control), JR-CSF+20 μg/ml retrocyclin or JR-CSF+20 μg RC-101. Cells were washed and resuspended in 1 ml R10-50 media, and incubated for an additional 9 hours. Following incubation, cells were pelleted at 300×g, removed of overlying supernatant, and stored at −80° C. until analyzed by real time PCR.

[2] = test system: primary HIV-1 isolates; conditions: for pIC50: read-out: mean IC50; for pIC50 / mean IC50: seven subtype B strains
Excerpt: Viral isolates. Primary HIV-1 isolates were obtained from Institutional Review Board-approved Centers for Disease Control and Prevention (CDC) Studies or from the National Institutes of Health Research and Reference Reagent Program and World Health Organization collaborative network. Detailed characteristics of the CDC isolates, including subtype determination based on the envelope region, and co-receptor usage using GHOST cell lines have been described elsewhere. For viruses obtained from the NIH Research and Reference Reagent Program, the reported subtype and co-receptor data were used as supplied. Viral stocks were generated by infecting CD8-depleted normal human peripheral blood mononuclear cells. After filtration through 0.22-μm filters, aliquots of the stocks were stored at −70° C. until used.
Reporter gene-based viral replication assay. JC53-BL cells, an HIV-1 reporter cell line derived from HeLa cells that expresses high levels of CD4 and the HIV co-receptors CXCR4 and CCR5, were a gift of Tranzyme Inc. (Birmingham, Ala.). The JC53-BL cells contain cassettes for luciferase and β-galactosidase, each driven by the HIV-1 LTR. HIV infection (tat production) can be detected either by measuring luciferase activity or by counting blue foci after staining the cells with “X-Gal” (5-Bromo-4-chloro-3-indolyl β-D-galactopyranoside), as described elsewhere in detail. The JC53-BL cells were maintained in Dulbecco's modified Eagle medium supplemented with 10% fetal calf serum. (HyClone, Logan, Utah), 2 mM glutamine (Gibco), 100 units per ml penicillin G and 100 μg/ml streptomycin (GIBCO™, Invitrogen Corp., San Diego, Calif.). Viral titers were determined by adding serial dilutions of the virus stocks, in triplicate, to wells containing 20,000 JC53-BL cells, after supplementing the above medium with 40 μg/ml DEAE (diethylaminoethyl)-dextran. After a 48 hour incubation at 37° C. in 5% CO2, the cells were fixed and stained for β galactosidase, and the blue foci were counted with a light microscope. Multiplicity of infection (MOI) values were taken from the infectious unit data.
In vitro infections were carried out in the presence or absence of θ-defensin peptides. Briefly, JC53-BL cells were harvested from T-150 flasks approximately 18 hours prior to starting the assay with 0.1 mM EDTA in 0.017 M PBS, pH 7.4. The cells were washed and transferred to sterile white 96-well plates (Thermo Labsystems, Franklin, Mass.) at a density of 20,000 cells in 50 μl of medium. […] After this 3-hour preincubation with peptides, viruses were added in media containing 40 μg/ml DEAE-dextran. The final volume was 200 μl per well, and the multiplicity of infection (viruses/cell) ranged from 0.009 to 0.65. After the plates had incubated at 37° C. in 5% CO2 for 48 hours, luciferase activity was measured with the Steady-Glo Luciferase Assay System (Promega, Madison, Wis.), using the manufacturer's lysis protocol. Relative light intensity was measured with a Tecan luminometer running Magellan software (Tecan, Research Triangle Park, N.C.) and reported as relative light units (RLU). Each plate contained three sets of quadruplicate controls: media-only (background), virus-only (peptide-free), and recombinant luciferase. Samples were run in duplicate and the % inhibition was calculated from the mean values using the formula: % Inhibition=1−(average RLU peptide+virus wells/average RLU virus only wells)×100.
Fifty-percent inhibitory concentration values (IC50) were calculated using the predicted exponential growth function in Microsoft Excel, which uses known x-y values to estimate a given x value (in this case concentration of peptide) that would correspond to a given y value (in this case IC50). Statistical comparisons were by paired t-tests, unless otherwise noted.

[3] = isolate 92BR023, subtype C/B, R5
[4] = isolate 92HT593, Haiti, subtype B, X4
[5] = isolate 92RW009, subtype C/A, R5/X4
[6] = isolate 92UG005, Uganda, subtype D, R5
[7] = isolate 93TH060, Thailand, CRF01-AE, R5
[8] = isolate 93UG053, Uganda, subtype D, R5
[9] = isolate 93US151, USA, subtype B, X4
[10] = isolate 98CN009, China, subtype C, R5
[11] = isolate 98TZ017, Tanzania, subtype C, R5
[12] = isolate 5157-1326, USA, subtype B, R5
[13] = isolate 192431, Nigeria, subtype C, X4
[14] = isolate 193358, Nigeria, subtype C, R5
[15] = isolate 196531, Cameroon, subtype A, R5
[16] = isolate 196554, Senegal, subtype A, R5
[17] = isolate HM14, Thailand, CRF01-AE, X4

Row | SMILES | formation of HIV-1 proviral DNA [1] | IC50 (mean±SEM, n=8) [2] [µg/mL] | IC50 Concentrations [2, 3] [µg/mL] | IC50 Concentrations [2, 4] [µg/mL] | IC50 Concentrations [2, 5] [µg/mL] | IC50 Concentrations [2, 6] [µg/mL] | IC50 Concentrations [2, 7] [µg/mL] | IC50 Concentrations [2, 8] [µg/mL] | IC50 Concentrations [2, 9] [µg/mL] | IC50 Concentrations [2, 10] [µg/mL] | IC50 Concentrations [2, 11] [µg/mL] | IC50 Concentrations [2, 12] [µg/mL] | IC50 Concentrations [2, 13] [µg/mL] | IC50 Concentrations [2, 14] [µg/mL] | IC50 Concentrations [2, 15] [µg/mL] | IC50 Concentrations [2, 16] [µg/mL] | IC50 Concentrations [2, 17] [µg/mL] | pIC50 [2] | mean IC50 [2] | also measured
1 | CC[C@H](C)[C@@H]1NC(=O)CNC(=O)[C@H](CCCNC(=N)N)NC(=O)CNC(=O)[C@@H]2CSSC[C@H](NC1=O)C(=O)N[C@@H](CCCNC(=N)N)C(=O)N[C@H]1CSSC[C@H](NC(=O)[C@H](CCCNC(=N)N)NC(=O)[C@@H]3CSSC[C@H](NC(=O)[C@H]([C@@H](C)CC)NC1=O)C(=O)NCC(=O)N[C@@H](CCCNC(=N)N)C(=O)NCC(=O)N[C@@H]([C@@H](C)CC)C(=O)N3)C(=O)N[C@@H]([C@@H](C)CC)C(=O)N2 [RC-100, Retrocyclin] (cyclo(GICRCICGRGICRCICGR); disulfide 3-16, 5-14, 7-12) | inhibited the formation of HIV-1 proviral DNA | 7.79 ± 1.16 (≈ 4.06 µM) | 4.71 (≈ 2.46 µM) | 5.73 (≈ 2.99 µM) | 8.72 (≈ 4.55 µM) | 5.18 (≈ 2.7 µM) | 7.39 (≈ 3.85 µM) | 6.38 (≈ 3.33 µM) | 1.69 (≈ 0.881 µM) | >10 | >10 | 4.64 (≈ 2.42 µM) | 5.18 (≈ 2.7 µM) | >10 | >10 | 5.73 (≈ 2.99 µM) | 3.09 (≈ 1.61 µM) | ~5.59 | approximately 5.0 μg/ml | IC50 Concentrations ([2]; isolate 92RW024, subtype D/A, R5): 7.78 µg/mL (≈ 4.06 µM); IC50 Concentrations ([2]; isolate 92UG037, Uganda, subtype A, R5): 1.44 µg/mL (≈ 0.751 µM); IC50 Concentrations ([2]; isolate 92US714, USA, subtype B, R5): >10 µg/mL; IC50 Concentrations ([2]; isolate 92US727, USA, subtype B, R5): 6.46 µg/mL (≈ 3.37 µM); IC50 Concentrations ([2]; isolate 93UG059, subtype A/D, X4): 6.65 µg/mL (≈ 3.47 µM); IC50 Concentrations ([2]; isolate 94UG114, Uganda, subtype D, R5): 3.69 µg/mL (≈ 1.92 µM); IC50 Concentrations ([2]; isolate 5148-1382, USA, subtype B, R5): 5.71 µg/mL (≈ 2.98 µM); IC50 Concentrations ([2]; isolate 5157-35097, USA, subtype B, R5X4): 6.29 µg/mL (≈ 3.28 µM); IC50 Concentrations ([2]; isolate 193317, Nigeria, subtype A, X4): >10 µg/mL; IC50 Concentrations ([2]; isolate RU132, Russia, subtype G, R5): 5.27 µg/mL (≈ 2.75 µM); IC50 Concentrations ([2]; isolate RU570, subtype G, R5): 8.63 µg/mL (≈ 4.5 µM)
2 | CC[C@H](C)[C@@H]1NC(=O)CNC(=O)[C@H](CCCCN)NC(=O)CNC(=O)[C@@H]2CSSC[C@H](NC1=O)C(=O)N[C@@H](CCCNC(=N)N)C(=O)N[C@H]1CSSC[C@H](NC(=O)[C@H](CCCNC(=N)N)NC(=O)[C@@H]3CSSC[C@H](NC(=O)[C@H]([C@@H](C)CC)NC1=O)C(=O)NCC(=O)N[C@@H](CCCNC(=N)N)C(=O)NCC(=O)N[C@@H]([C@@H](C)CC)C(=O)N3)C(=O)N[C@@H]([C@@H](C)CC)C(=O)N2 [RC-101, R9K-Retrocyclin] | inhibited the formation of HIV-1 proviral DNA | 2.93 ± 0.95 (≈ 1.55 µM) | 3.04 (≈ 1.61 µM) | 0.76 (≈ 0.402 µM) | 2.72 (≈ 1.44 µM) | 1 (≈ 0.529 µM) | 2.15 (≈ 1.14 µM) | 1.54 (≈ 0.815 µM) | 0.49 (≈ 0.259 µM) | 8.53 (≈ 4.51 µM) | 4.87 (≈ 2.58 µM) | 3.59 (≈ 1.9 µM) | 0.54 (≈ 0.286 µM) | 2.75 (≈ 1.45 µM) | 2.65 (≈ 1.4 µM) | 0.51 (≈ 0.27 µM) | 0.84 (≈ 0.444 µM) | > 6.18 | < 1.25 µg/mL | protective activity compared with retrocyclin-1 [2]: more active than retrocyclin-1; protective activity compared with retrocyclin-1 ([2]; subtype D strains, 1.25, 2.5, 5 and 10 μg/ml): more active than retrocyclin-1; protective activity compared with retrocyclin-1 ([2]; subtype G and various recombinant viruses): greater protection than retrocyclin-1
